# In patent US6494824B1, “Medical, radiotherapy source vial” (priority 1998, dated 2002):
# Key:
# [1] = tested on: balloon-injured coronary arteries (neointimal formation); assay: Angioplasty balloon injury of porcine coronary arteries, xenon-133 radiogas balloon irradiation, morphometry after two weeks; format: in vivo; details: for IA (intimal area): two weeks after treatment, control 1.04 ± 0.20; for IA/FL (intimal area corrected for medical fracture length): control 0.55 ± 0.06
# Protocol: Prior art systems can falter with regards to dose homogeneity, optimal efficacy, radiation safety restrictions, patient handling, and radionuclide availability. The present medical radiation treatment system was developed and tested for irradiation with historically safe xenon-133 inert radiogas. In order to determine the efficacy of xenon-133 radiogas to inhibit neointimal formation and subsequent luminal restenosis, angioplasty balloon injury was performed in the coronary arteries of 17 juvenile porcine subjects. Following balloon injury of the coronary arteries of these porcine subjects, 3.0 to 3.5 mm balloons of 30 to 40 mm lengths were positioned to cover and overlap the injured vessel segment. A negative pressure was obtained in the radiocatheter prior to placement. Xenon-133 activity of 250-300 mCi (in 2.0-2.5 cc's) was injected to fill the balloon segment, uniformly abutting the lumen wall. A dose of either 15 Gy or 30 Gy was prescribed and delivered to a target tissue depth of 0.25 mm from the expanded balloon surface. The dwell time during inflation was 2±0.5 minutes (avg.). Prior in vitro dosimetry trials were performed to obtain reference micro-dosimetry results. Summary data analysis including reference tables and graphics, were performed and applied for delivery ranges as described above. This was performed using multiple trials with Cook GRII® balloon catheters of various coronary sizes with different quantities of xenon-133 (millicuries), exposure time (min.), and volumes (cc). Customized solid water phantoms, layered Gafchromic film, laser/light densitometry readings, and referenced dosimetry graphics were standardly applied to obtain these referenced measurements.
# (§1) Localization of the radiogas filled balloon was verified by Gamma Camera and fluoroscopic imaging. The radiation exposure measured 100 mR/h at the chest wall and 5 mR/h immediately bedside. Two weeks following treatment, the animals were harvested, the arteries perfusion fixed, stained, and morphometrically analyzed. The intimal area (IA) was compared between the irradiated and control arteries.
# [2] = Radiation exposure measured during radiogas balloon treatment; format: in vivo, porcine; details: 250-300 mCi in balloon
# Protocol: Prior art systems can falter with regards to dose homogeneity, optimal efficacy, radiation safety restrictions, patient handling, and radionuclide availability. The present medical radiation treatment system was developed and tested for irradiation with historically safe xenon-133 inert radiogas. In order to determine the efficacy of xenon-133 radiogas to inhibit neointimal formation and subsequent luminal restenosis, angioplasty balloon injury was performed in the coronary arteries of 17 juvenile porcine subjects. […] This was performed using multiple trials with Cook GRII® balloon catheters of various coronary sizes with different quantities of xenon-133 (millicuries), exposure time (min.), and volumes (cc). Customized solid water phantoms, layered Gafchromic film, laser/light densitometry readings, and referenced dosimetry graphics were standardly applied to obtain these referenced measurements.
# as §1, with “The intimal area (IA) was compared between the irradiated and control arteries.” left out
smiles,measurement,setting,value
"[133Xe] [Xe-133, xenon-133]",% absolute ratio reduction (IA/FL vs control),[1]; 15 Gy,71%
same,IA (intimal area),"[1]; 15 Gy at 0.25 mm tissue depth, n = 9",0.34 ± 0.17 mm^2
same,share of group showing IA (mm^2) of ≦0.06,[1]; 15 Gy group,66%
same,IA/FL (intimal area corrected for medical fracture length),"[1]; 15 Gy, n = 9",0.16 ± 0.08
same,% absolute ratio reduction (IA/FL vs control),[1]; 30 Gy,45%
same,IA (intimal area),"[1]; 30 Gy at 0.25 mm tissue depth, n = 8",0.38 ± 0.18 mm^2
same,share of group showing IA (mm^2) of ≦0.06,[1]; 30 Gy group,44%
same,thrombosis,[1]; 30 Gy group,slight trend toward increased thrombosis
same,IA/FL (intimal area corrected for medical fracture length),"[1]; 30 Gy, n = 8",0.32 ± 0.12
same,neointimal formation (conclusion from harvested vessels),"[1]; porcine model, radiogas balloon catheter",effective in markedly reducing neointimal formation
same,radiation exposure,[2]; at the chest wall,100 mR/h
same,radiation exposure,[2]; immediately bedside,5 mR/h
